This note sets out measurements from patent publication US10076519B2 (CYTOKINETICS, INC., priority 2010, dated 2018).

Each structure is given as a SMILES string.

One experiment concerns rabbit skeletal myofibrils (fast skeletal myofibrils). The experiment is described as follows: Activation of fast skeletal myofibrils (PUMA assay, PK/LDH-coupled ATPase at pCa25). The following applies: AC1.4 determined according to the procedure of Example 39; reported as class symbols. In kind it is biochemical. The essentials:
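Detergent-washed rabbit psoas myofibrils (~90% fast fibres, calcium-regulated) assayed at calcium giving 25% of maximal ATPase rate (pCa25). ADP turnover coupled via pyruvate kinase/lactate dehydrogenase to NADH oxidation, read at 340 nm. Buffer 12 mM PIPES, 2 mM MgCl2, 1 mM DTT, pH 6.8; AC1.4 values derived.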
With `N#Cc1cccc(C2(CNc3ccc(-c4cccc(C(N)=O)c4)nn3)CCC2)n1`, the “Mean AC1.4” value is given as “B (B=1-10 uM)”. In the case of `CC(C)(CNc1ccc(-c2ccc3c(=O)[nH]c(N)nc3c2)nn1)c1ccc(F)cc1`, the “Mean AC1.4” value is “C (C=10-20 uM)”. For `CC(C)(CNc1ccc(-c2cccc(CN)c2)nn1)c1ccc(F)cc1` [{6-[3-(aminomethyl)phenyl]pyridazin-3-yl}[2-(4-fluorophenyl)-2-methylpropyl]amine], the “Mean AC1.4” value is on record as “B (B=1-10 uM)”. Same read-out and setting: then `NC(=O)c1ccc(F)c(-c2ccc(NCC3(c4cc(O)ccn4)CCC3)nn2)c1`, with “D (D=>20 uM)”; and `COc1ccc(C2(CNc3ccc(-c4cc(C(N)=O)ccc4F)nn3)CCC2)nc1`, with “D (D=>20 uM)”; and `CC(C)(CNc1ccc(-c2cc(=O)[nH]c(N)n2)nn1)c1ccc(F)cc1`, with “B (B=1-10 uM)”.

Take `NC(=O)c1cccc(-c2ccc(NCCc3cccc(Cl)c3)nn2)c1`: the “Mean AC1.4” value is “B (B=1-10 uM)”. Same read-out and setting: then `Cc1cc(NCC(C)(C)c2ccc(F)cc2)nnc1-c1cccc(C(N)=O)c1` [3-(6-{[2-(4-fluorophenyl)-2-methylpropyl]amino}-4-methylpyridazin-3-yl)benzamide], with “B (B=1-10 uM)”; and `CC(C)(CNc1ccc(-c2ccc(F)cc2)nn1)c1ccc(F)cc1` [[2-(4-fluorophenyl)-2-methylpropyl][6-(4-fluorophenyl)pyridazin-3-yl]amine], with “B (B=1-10 uM)”. With `c1cnc(C2(CNc3ccc(-c4ccc5cn[nH]c5c4)nn3)CCC2)cn1` [(6-(1H-indazol-6-yl)pyridazin-3-yl)[(pyrazin-2-ylcyclobutyl)methyl]amine], the “Mean AC1.4” value was “C (C=10-20 uM)”. As to `CC(C)(CNc1ccc(-c2cccc(C(N)=O)c2)nn1)c1ncc(F)cc1F` [3-(6-{[2-(3,5-difluoro(2-pyridyl))-2-methylpropyl]amino}pyridazin-3-yl)benzamide], the “Mean AC1.4” value is recorded as “B (B=1-10 uM)”. `CC(C)(CNc1ccc(-c2ccc(N)cc2)nn1)c1ccc(F)cc1` [[6-(4-aminophenyl)pyridazin-3-yl][2-(4-fluorophenyl)-2-methylpropyl]amine]: the “Mean AC1.4” value is “A (A=<1 uM)”. With `NC(=O)c1cccc(-c2ccc(NCCc3ccc(Cl)c(Cl)c3)nn2)c1`, the “Mean AC1.4” value is on record as “C (C=10-20 uM)”. Still for that read-out and setting: the same measure for `CC(=O)N1CC(CNc2ccc(-c3cccc(C(N)=O)c3)nn2)(c2ncccc2F)C1` [3-[6-({[1-acetyl-3-(3-fluoro(2-pyridyl))azetidin-3-yl]methyl}amino)pyridazin-3-yl]benzamide]: “D (D=>20 uM)”; for `NC(=O)c1ccc(-c2ccc(NCC3(c4ncccc4F)CCC3)nn2)cc1`: “B (B=1-10 uM)”. Turning to `CC(C)(CNc1nnc(-c2cccc(C(N)=O)c2)cc1C(N)=O)c1ccc(F)cc1` [6-(3-carbamoylphenyl)-3-{[2-(4-fluorophenyl)-2-methylpropyl]amino}pyridazine-4-carboxamide], the “Mean AC1.4” value is given as “B (B=1-10 uM)”. Consider `CC(C)(CNc1ccc(-c2ccc3[nH]c(=O)[nH]c(=O)c3c2)nn1)c1ccc(F)cc1` [6-(6-{[2-(4-fluorophenyl)-2-methylpropyl]amino}pyridazin-3-yl)-1,3-dihydroquinazoline-2,4-dione], for which the “Mean AC1.4” value is “B (B=1-10 uM)”.

`CC(C)(CNc1ccc(-c2ccc3[nH]c(=O)[nH]c3c2)nn1)c1ccc(F)cc1`: the “Mean AC1.4” value is listed as “A (A=<1 uM)”. `CC(C)(C)CNc1ccc(-c2ccc3[nH]c(=O)[nH]c3c2)nn1`: the “Mean AC1.4” value was “D (D=>20 uM)”.

The experiment is the same for the next values; noted with them: median AC1.4 class, procedure of Example 39.
`NS(=O)(=O)Nc1ccc(-c2ccc(NC3(c4ncccc4F)CCC3)nn2)c(F)c1`: the “Mean AC1.4” value is “B (B=1-10 uM)”. With `CS(=O)(=O)Nc1n[nH]c2ccc(-c3ccc(NC[C@]4(c5ncccc5F)C[C@H](F)C4)nn3)cc12` [{5-[6-({[3-fluoro-1-(3-fluoro(2-pyridyl))cyclobutyl]methyl}ami-no)pyridazin-3-yl](1H-indazol-3-yl)}(methylsulfonyl)amine], the “Mean AC1.4” value is given as “A (A=<1 uM)”.

In the case of `CC(C)NC(=O)c1ccc(F)c(-c2ccc(NC[C@]3(c4ncccc4F)C[C@H](F)C3)nn2)c1` [{4-fluoro-3-[6-({[3-fluoro-1-(3-fluoro(2-pyridyl))cyclobutyl]methyl}ami-no)pyridazin-3-yl]phenyl}-N-(methylethyl)carboxamide], the “Mean AC1.4” value is given as “A (A=<1 uM)”. Still for that read-out and setting: then `NC(=O)Cc1cnc(-c2ccc(NCC3(c4ncccc4F)CCC3)nn2)s1` [2-{2-[6-({[(3-fluoro-2-pyridyl)cyclobutyl]methyl}ami-no)pyridazin-3-yl]-1,3-thiazol-5-yl}acetamide], with “B (B=1-10 uM)”.

In the case of `Fc1ccc(C2(Nc3ccc(-c4ccncc4F)nn3)CCC2)cc1` [[6-(3-fluoro(4-pyridyl))pyridazin-3-yl][(4-fluorophenyl)cyclobutyl]amine], the “Mean AC1.4” value is recorded as “B (B=1-10 uM)”.

In the case of `NC(=O)c1cccc(-c2ccc(NC3(c4ccccc4F)CCC3)nn2)c1`, the “Mean AC1.4” value is reported as “A (A=<1 uM)”. Still for that read-out and setting: the same measure for `Oc1ccc(-c2ccc(NCC3(c4ncccc4F)CCC3)nn2)nc1`: “A (A=<1 uM)”; for `CC(C)(CNc1ccc(-c2cccc(-c3nn[nH]n3)c2)nn1)c1ncccc1F` [[6-(3-(2H-1,2,3,4-tetraazol-5-yl)phenyl)pyridazin-3-yl][2-(3-fluoro(2-pyridyl))-2-methylpropyl]amine]: “B (B=1-10 uM)”. As to `NC(=O)c1cccc(-c2ccc(NC3(c4ccccn4)CCC3)nn2)c1` [3-{6-[(2-pyridylcyclobutyl)amino]pyridazin-3-yl}benzamide], the “Mean AC1.4” value is “D (D=>20 uM)”. Take `NS(=O)(=O)c1cccc(-c2ccc(NC[C@]3(c4ncccc4F)C[C@H](F)C3)nn2)c1` [3-[6-({[3-fluoro-1-(3-fluoro(2-pyridyl))cyclobutyl]methyl}ami-no)pyridazin-3-yl]benzenesulfonamide]: the “Mean AC1.4” value was “B (B=1-10 uM)”. As for `CC(=O)Nc1nccc(-c2ccc(NCC3(c4ncccc4F)CCC3)nn2)n1` [N-{4-[6-({[(3-fluoro-2-pyridyl)cyclobutyl]methyl}ami-no)pyridazin-3-yl]pyrimidin-2-yl}acetamide], the “Mean AC1.4” value is listed as “C (C=10-20 uM)”. Regarding `CC(=O)Nc1ccc(-c2ccc(NCC3(c4ncccc4F)CCC3)nn2)cc1`, the “Mean AC1.4” value is “A (A=<1 uM)”. The same measure, in the same setting: then `O=C(NCc1cnc(-c2ccc(NCC3(c4ncccc4F)CCC3)nn2)s1)c1cnc[nH]1` [N-({2-[6-({[(3-fluoro(2-pyridyl))cyclobutyl]methyl}ami-no)pyridazin-3-yl](1,3-thiazol-5-yl)}methyl)imidazol-5-ylcarboxamide], with “A (A=<1 uM)”.

Staying with this experiment, now noted: median AC1.4 reported as class; procedure of Example 39.
For the molecule `CN1CC(NC(=O)c2ccc(F)c(-c3ccc(NC[C@]4(c5ncccc5F)C[C@H](F)C4)nn3)c2)C1` [{4-fluoro-3-[6-({[3-fluoro-1-(3-fluoro(2-pyridyl))cyclobutyl]methyl}ami-no)pyridazin-3-yl]phenyl}-N-(1-methylazetidin-3-yl)carboxamide], the “Mean AC1.4” value is recorded as “B (B=1-10 uM)”. Regarding `CCOC(=O)c1cc(-c2ccc(NC[C@]3(c4ncccc4F)C[C@H](F)C3)nn2)ccc1NC` [ethyl 5-[6-({[3-fluoro-1-(3-fluoro(2-pyridyl))cyclobutyl]methyl}ami-no)pyridazin-3-yl]-2-(methylamino)benzoate], the “Mean AC1.4” value is “A (A=<1 uM)”. Regarding `Fc1cccnc1[C@]1(CNc2ccc(-c3ccc(NC4CC4)nc3)nn2)C[C@@H](F)C1` [{6-[6-(cyclopropylamino)(3-pyridyl)]pyridazin-3-yl}{[3-fluoro-1-(3-fluoro(2-pyridyl))cyclobutyl]methyl}amine], the “Mean AC1.4” value is recorded as “D (D=>20 uM)”. Take `O=C(NC1CNC1)c1cccc(-c2ccc(NC[C@]3(c4ncccc4F)C[C@H](F)C3)nn2)c1` [N-azetidin-3-yl{3-[6-({[3-fluoro-1-(3-fluoro(2-pyridyl))cyclobutyl]methyl}ami-no)pyridazin-3-yl]phenyl}carboxamide]: the “Mean AC1.4” value is reported as “B (B=1-10 uM)”. Regarding `O=C(NC1CC1)c1cccc(-c2ccc(NC[C@]3(c4ncccc4F)C[C@H](F)C3)nn2)c1` [N-cyclopropyl{3-[6-({[3-fluoro-1-(3-fluoro(2-pyridyl))cyclobutyl]methyl}ami-no)pyridazin-3-yl]phenyl}carboxamide], the “Mean AC1.4” value was “B (B=1-10 uM)”. As for `COc1c(C(N)=O)cccc1-c1ccc(NC[C@]2(c3ncccc3F)C[C@H](F)C2)nn1` [3-[6-({[3-fluoro-1-(3-fluoro(2-pyridyl))cyclobutyl]methyl}ami-no)pyridazin-3-yl]-2-methoxybenzamide], the “Mean AC1.4” value is “D (D=>20 uM)”. As for `CN(Cc1cnc(-c2ccc(NCC3(c4ncccc4F)CCC3)nn2)s1)C(=O)CO` [N-({2-[6-({[(3-fluoro(2-pyridyl))cyclobutyl]methyl}ami-no)pyridazin-3-yl](1,3-thiazol-5-yl)}methyl)-2-hydroxy-N-methylacetamide], the “Mean AC1.4” value is recorded as “B (B=1-10 uM)”. Take `NC1CCc2nc(-c3ccc(NCC4(c5ncccc5F)CCC4)nn3)sc2C1` (stereo not shown) [[6-(6-amino(4,5,6,7-tetrahydrobenzothiazol-2-yl))pyridazin-3-yl]{[(3-fluoro(2-pyridyl))cyclobutyl]methyl}amine]: the “Mean AC1.4” value is “D (D=>20 uM)”.

On to `O=C(O)c1cc(-c2ccc(NC[C@]3(c4ncccc4F)C[C@H](F)C3)nn2)ccc1O` [5-[6-({[3-fluoro-1-(3-fluoro(2-pyridyl))cyclobutyl]methyl}ami-no)pyridazin-3-yl]-2-hydroxybenzoic acid], for which the “Mean AC1.4” value is given as “B (B=1-10 uM)”. On the same count and under the same terms, the same measure for `CNC(=O)c1ccc(-c2ccc(NCC3(c4ncccc4F)CCC3)nn2)s1` [{5-[6-({[(3-fluoro(2-pyridyl))cyclobutyl]methyl}ami-no)pyridazin-3-yl](2-thienyl)}-N-methylcarboxamide]: “B (B=1-10 uM)”; for `O=C(NCc1ccccn1)c1ccc(NCC2(c3ncccc3F)CCC2)nn1` [[6-({[(3-fluoro(2-pyridyl))cyclobutyl]methyl}ami-no)pyridazin-3-yl]-N-(2-pyridylmethyl)carboxamide]: “D (D=>20 uM)”.
